Consider 37 molecules from patent publication US11555032B2, “Isoxazole derivatives as FXR agonists and methods of use thereof” (Enanta Pharmaceuticals, Inc., priority 2019, dated 2023).

The target in this assay is T1, human FXR (NR1H4) (Homo sapiens, UniProt Q96RI1).
T1 construct: host or cells: CHO (Chinese hamster ovary) reporter cells
T1 sequence (Q96RI1 1-486): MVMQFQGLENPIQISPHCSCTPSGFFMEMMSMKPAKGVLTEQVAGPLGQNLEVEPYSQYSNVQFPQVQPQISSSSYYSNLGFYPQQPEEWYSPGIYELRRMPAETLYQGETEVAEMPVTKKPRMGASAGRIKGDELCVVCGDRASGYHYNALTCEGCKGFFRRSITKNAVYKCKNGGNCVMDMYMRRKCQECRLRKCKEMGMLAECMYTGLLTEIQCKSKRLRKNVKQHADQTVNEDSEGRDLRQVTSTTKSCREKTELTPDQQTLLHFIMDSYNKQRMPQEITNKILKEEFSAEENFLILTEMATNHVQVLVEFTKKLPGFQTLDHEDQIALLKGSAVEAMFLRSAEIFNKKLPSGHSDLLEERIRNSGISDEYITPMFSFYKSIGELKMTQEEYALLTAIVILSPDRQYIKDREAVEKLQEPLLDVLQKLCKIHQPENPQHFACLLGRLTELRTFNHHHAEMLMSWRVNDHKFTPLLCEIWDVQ
Description: Human FXR (NRIH4) Assay, luciferase reporter. The class given is cell-based. The conditions noted are these: CHO reporter cells expressing human NR1H4, luciferase, 22 hours incubation. An excerpt: Determination of a ligand mediated Gal4 promoter driven transactivation to quantify ligand binding mediated activation of FXR. FXR Reporter Assay kit purchased from Indigo Bioscience (Catalogue number: IB00601) to determine the potency and efficacy of compound developed by Enanta that can induce FXR activation. The principle application of this reporter assay system is to quantify functional activity of human FXR. The assay utilizes non-human mammalian cells, CHO (Chinese hamster ovary) cells engineered to express human NR1H4 protein (referred to as FXR). Reporter cells also incorporate the cDNA encoding beetle luciferase which catalyzes the substrates and yields photon emission. Luminescence intensity of the reaction is quantified using a plate-reading luminometer, Envision. Reporter Cells include the luciferase reporter gene functionally linked to an FXR responsive promoter. Thus, quantifying changes in luciferase expression in the treated reporter cells provides a sensitive surrogate measure of the changes in FXR activity. EC50 and efficacy (normalize to CDCA set as 100%) is determined by XLFit. The assay is according to the manufacturer's instructions. In brief, the assay was performed in white, 96 well plates using final volume of 100 ul containing cells with different doses of compounds. Retrieve Reporter Cells from −80° C. storage. Perform a rapid thaw of the frozen cells by transferring a 10 ml volume of 37° C. cell recovery medium into the tube of frozen cells. Recap the tube of Reporter Cells and immediately place it in a 37° C. water bath for 5-10 minutes. Retrieve the tube of Reporter Cell Suspension from the water bath. Sanitize the outside surface of the tube with a 70% alcohol swab, and then transfer it into the cell culture hood. Dispense 90 μl of cell suspension into each well of the 96-well Assay Plate. Transfer the plate into 37° C. incubator, allowing the cells adherent to the bottom of the well. Dilute compounds in Dilution Plate (DP), and administrate to cells at Assay Plate (AP). DMSO content of the samples was kept at 0.2%. Cells were incubated for additional 22 hours before luciferase activities were measured. Thirty minutes before intending to quantify FXR activity, remove Detection Substrate and Detection Buffer from the refrigerator and place them in a low-light area so that they may equilibrate to room temperature. Remove the plate's lid and discard all media contents by ejecting it into an appropriate waste container. Gently tap the inverted plate onto a clean absorbent paper towel to remove residual droplets. Cells will remain tightly adhered to well bottoms. Add 100 μl of luciferase detection reagent to each well of the assay plate. Allow the assay plate to rest at room temperature for at least 5 minutes following the addition of LDR. Set the instrument (Envision) to perform a single 5 second “plate shake” prior to reading the first assay well. Read time may be 0.5 second (500 mSec) per well. EC50 and Efficacy (normalize to CDCA set as 100%) is determined by XLFit.
The efficacy was normalized to CDCA set as 100%.
In general terms: Reporter assays use an easily measured gene product as a stand-in for the process of interest.

Bounds are passed on as bounds.

For orientation: EC50 means the concentration at which the effect is half-maximal.

Turning to `O=C(O)c1cccc(S(=O)(=O)C2C3CCC2CC(OCc2c(-c4ccccc4OC(F)(F)F)noc2C2CC2)C3)c1` (stereo not shown) [Example 11-8], the EC50 was > 500 nM. As for `COC(=O)c1ccc2nc(SC3C4CCC3CC(OCc3c(-c5ccccc5OC(F)(F)F)noc3C3CC3)C4)sc2c1` (stereo not shown) [Example 11-9], the figure is 25 to 500 nM; as for `O=C(O)c1ccc2nc(SC3C4CCC3CC(OCc3c(-c5ccccc5OC(F)(F)F)noc3C3CC3)C4)sc2c1` (stereo not shown) [Example 11-10], < 25 nM; as for `O=C(O)c1ccc2nc(S(=O)(=O)C3C4CCC3CC(OCc3c(-c5ccccc5OC(F)(F)F)noc3C3CC3)C4)sc2c1` (stereo not shown) [Example 11-11], 25 to 500 nM. For `COC(=O)c1ccc(SC2C3CCC2CC(OCc2c(-c4ccccc4OC(F)(F)F)noc2C2CC2)C3)cc1` (stereo not shown) [Example 11-12], the EC50 lay within 25 to 500 nM. The figure for `O=C(O)c1ccc(SC2C3CCC2CC(OCc2c(-c4ccccc4OC(F)(F)F)noc2C2CC2)C3)cc1` (stereo not shown) [Example 11-13] is 25 to 500 nM; for `COC(=O)c1ccc(S(=O)(=O)C2C3CCC2CC(OCc2c(-c4ccccc4OC(F)(F)F)noc2C2CC2)C3)cc1` (stereo not shown) [Example 11-14] it is 25 to 500 nM; for `O=C(O)c1ccc(S(=O)(=O)C2C3CCC2CC(OCc2c(-c4ccccc4OC(F)(F)F)noc2C2CC2)C3)cc1` (stereo not shown) [Example 11-15] it is 25 to 500 nM. As for `CCOC(=O)c1cc(F)c2nc(SC3C4CCC3CC(OCc3c(-c5ccccc5OC(F)(F)F)noc3C3CC3)C4)sc2c1` (stereo not shown) [Example 11-16], the figure is 25 to 500 nM; as for `O=C(O)c1cc(F)c2nc(SC3C4CCC3CC(OCc3c(-c5ccccc5OC(F)(F)F)noc3C3CC3)C4)sc2c1` (stereo not shown) [Example 11-17], < 25 nM.

As for `CCOC(=O)c1cc(F)c2nc(S(=O)(=O)C3C4CCC3CC(OCc3c(-c5ccccc5OC(F)(F)F)noc3C3CC3)C4)sc2c1` (stereo not shown) [Example 11-18], the EC50 was > 500 nM. Regarding `O=C(O)c1cccc2nc(SC3C4CCC3CC(OCc3c(-c5ccccc5OC(F)(F)F)noc3C3CC3)C4)cnc12` [Example 12, 2-(((1R,3r,5S,8s)-3-((5-cyclopropyl-3-(2-(trifluoromethoxy)phenyl)isoxazol-4-yl)methoxy)bicyclo[3.2.1]octan-8-yl)thio)quinoxaline-5-carboxylic acid], the concentration for a half-maximal effect (EC50) was < 25 nM.

As for `N#Cc1cccc2ncc(NC3C4CCC3CC(OCc3c(-c5ccccc5OC(F)(F)F)noc3C3CC3)C4)nc12` (stereo not shown) [Example 13-2], the EC50 is > 500 nM. Consider `FC(F)(F)Oc1ccccc1-c1noc(C2CC2)c1CO[C@H]1C[C@H]2CC[C@@H](C1)[C@@H]2Nc1cnc2c(-c3nnn[nH]3)cccc2n1` [Example 13-3, N-((1R,3r,5S,8s)-3-((5-cyclopropyl-3-(2-(trifluoromethoxy)phenyl)isoxazol-4-yl)methoxy)bicyclo[3.2.1]octan-8-yl)-5-(1H-tetrazol-5-yl)quinoxalin-2-amine], for which the EC50 was < 25 nM. The figure for `FC(F)(F)Oc1ccccc1-c1noc(C2CC2)c1COC1CC2CCC(C1)C2Nc1nc2c(C3CC3)cc(-c3nnn[nH]3)cc2s1` (stereo not shown) [Example 13-5] is < 25 nM. Take `CC(C)Oc1cc(C#N)cc2sc(NC3C4CCC3CC(OCc3c(-c5ccccc5OC(F)(F)F)noc3C3CC3)C4)nc12` (stereo not shown) [Example 13-6]: the EC50 was < 25 nM.

`CC(C)Oc1cc(-c2nnn[nH]2)cc2sc(NC3C4CCC3CC(OCc3c(-c5ccccc5OC(F)(F)F)noc3C3CC3)C4)nc12` (stereo not shown) [Example 13-7]: the EC50 is < 25 nM. Regarding `CCOC(=O)c1cc(F)c2nc(SC3C4CCC3CC(NCc3c(-c5ccccc5OC(F)(F)F)noc3C3CC3)C4)sc2c1` [Example 14, ethyl 2-(((1R,3r,5S,8s)-3-(((5-cyclopropyl-3-(2-(trifluoromethoxy)phenyl)isoxazol-4-yl)methyl)amino)bicyclo[3.2.1]octan-8-yl)thio)-4-fluorobenzo[d]thiazole-6-carboxylate], the EC50 was > 500 nM.

The molecule `O=C(O)c1cc(F)c2nc(S[C@@H]3[C@@H]4CC[C@H]3C[C@@H](NCc3c(-c5ccccc5OC(F)(F)F)noc3C3CC3)C4)sc2c1` [Example 14-2, 2-(((1R,3r,5S,8s)-3-(((5-cyclopropyl-3-(2-(trifluoromethoxy)phenyl)isoxazol-4-yl)methyl)amino)bicyclo[3.2.1]octan-8-yl)thio)-4-fluorobenzo[d]thiazole-6-carboxylic acid] came in with an EC50 of 25 to 500 nM.

Regarding `COC(=O)c1ccc2nc(SC3C4CCC3CC(NCc3c(-c5ccccc5OC(F)(F)F)noc3C3CC3)C4)[nH]c2c1` (stereo not shown) [Example 14-3], the EC50 fell in the range of 25 to 500 nM. The figure for `Fc1c(Br)cccc1CNC1C2CCC1CC(OCc1c(-c3ccccc3OC(F)(F)F)noc1C1CC1)C2` [Example 15, (1R,3r,5S,8s)-N-(3-bromo-2-fluorobenzyl)-3-((5-cyclopropyl-3-(2-(trifluoromethoxy)phenyl)isoxazol-4-yl)methoxy)bicyclo[3.2.1]octan-8-amine] is 25 to 500 nM; for `Fc1ccc(CCNC2C3CCC2CC(OCc2c(-c4ccccc4OC(F)(F)F)noc2C2CC2)C3)cc1` (stereo not shown) [Example 15-2] it is > 500 nM; for `O=C(O)c1cc(F)c2nc(NC3C4CCC3CC(NCc3c(-c5ccccc5OC(F)(F)F)noc3C3CC3)C4)sc2c1` (stereo not shown) [Example 16] it is 25 to 500 nM.

As for `O=C(O)c1ccc2c(c1)CN(C1C3CCC1CC(OCc1c(-c4c(Cl)cccc4Cl)noc1C1CC1)C3)C2` (stereo not shown) [Example 17], the EC50 fell in the range of 25 to 500 nM. The figure for `CC(C)Oc1cc(C(=O)O)cc2sc(OC3C4CCC3CC(OCc3c(-c5ccccc5OC(F)(F)F)noc3C3CC3)C4)nc12` (stereo not shown) [Example 18] is 25 to 500 nM; for `FC(F)(F)Oc1ccccc1-c1noc(C2CC2)c1COC1CC2CCC(C1)C2Nc1cnc2cc(-c3nnn[nH]3)ccc2n1` (stereo not shown) [Example 25] it is 25 to 500 nM; for `O=C(O)c1cc(F)cc2ncc(NC3C4CCC3CC(OCc3c(-c5ccccc5OC(F)(F)F)noc3C3CC3)C4)nc12` (stereo not shown) [Example 26] it is > 500 nM. As for `N#Cc1cc(C2CC2)cc2nc(NC3C4CCC3CC(OCc3c(-c5ccccc5OC(F)(F)F)noc3C3CC3)C4)cnc12` (stereo not shown) [Example 27], the EC50 lay within 25 to 500 nM. As for `FC(F)(F)Oc1ccccc1-c1noc(C2CC2)c1COC1CC2CCC(C1)C2Nc1cnc2c(-c3nnn[nH]3)cc(C3CC3)cc2n1` (stereo not shown) [Example 28], the figure is < 25 nM; as for `O=C(O)c1ccc2nc(NC3C4CCC3CC(OCc3c(-c5ccccc5OC(F)(F)F)noc3C3CC3)C4)cnc2c1` (stereo not shown) [Example 29], < 25 nM; as for `O=C(O)c1cc(C2CC2)cc2nc(NC3C4CCC3CC(OCc3c(-c5ccccc5OC(F)(F)F)noc3C3CC3)C4)cnc12` (stereo not shown) [Example 30], < 25 nM.

`O=C(O)c1ccc2ccc(NC3C4CCC3CC(OCc3c(-c5ccccc5OC(F)(F)F)noc3C3CC3)C4)nc2c1` (stereo not shown) [Example 31] had an EC50 of 25 to 500 nM. As for `Fc1cc(-c2nnn[nH]2)c2ncc(NC3C4CCC3CC(OCc3c(-c5ccccc5OC(F)(F)F)noc3C3CC3)C4)nc2c1` (stereo not shown) [Example 32], the figure is < 25 nM; as for `CC1(S(=O)(=O)NC(=O)c2cccc3nc(NC4C5CCC4CC(OCc4c(-c6ccccc6OC(F)(F)F)noc4C4CC4)C5)cnc23)CC1` (stereo not shown) [Example 33], < 25 nM.

For the molecule `O=C(NS(=O)(=O)C1CC1)c1cccc2nc(NC3C4CCC3CC(OCc3c(-c5ccccc5OC(F)(F)F)noc3C3CC3)C4)cnc12` (stereo not shown) [Example 34], the EC50 is < 25 nM. As to `N#Cc1ccc2nc(NC3C4CCC3CC(OCc3c(-c5ccccc5OC(F)(F)F)noc3C3CC3)C4)cnc2c1` (stereo not shown) [Example 35], the EC50 is < 25 nM. As for `O=C(O)c1cc(C2CC2)c2nc(NC3C4CCC3CC(OCc3c(-c5ccccc5OC(F)(F)F)noc3C3CC3)C4)sc2c1` (stereo not shown) [Example 36], the EC50 is < 25 nM.
